Publication doi:10.1101/2021.02.22.432362v1 (biorxiv, 2021)
Read-outs that look alike come from different tables or passages of the source. Blank lines part the entries; values can stand above or below the compound they belong to.

Columns and labels:
BRD8(1) = BRD8(1) (Homo sapiens, UniProt Q9H0E9); assay: AlphaScreen biotin-tracer competition; type: binding
BRD9 [1] = molecular target: BRD9 (Homo sapiens, UniProt Q9H8M2); assay: AlphaScreen tracer competition; type: binding
Target sequence in this assay (Q9H8M2 134-239 limits assumed): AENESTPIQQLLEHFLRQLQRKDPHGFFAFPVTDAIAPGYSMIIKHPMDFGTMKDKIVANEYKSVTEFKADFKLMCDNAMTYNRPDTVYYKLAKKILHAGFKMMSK

ATAD2B = ATAD2B (Homo sapiens, UniProt Q9ULI0); assay: biochemical; conditions: read-out: % Ctrl (1 uM)
TAF1(2) = TAF1(2) (Homo sapiens, UniProt P21675); assay: biochemical; conditions: read-out: % Ctrl (1 uM)
PBRM1(5) = PBRM1(5) (Homo sapiens, UniProt Q86U86); assay: biochemical; conditions: read-out: % Ctrl (1 uM)
BRPF1 = BRPF1 (Homo sapiens, UniProt P55201); assay: biochemical; conditions: read-out: % Ctrl (1 uM)
BRD1 = BRD1 (Homo sapiens, UniProt O95696); assay: biochemical; conditions: read-out: % Ctrl (1 uM)
BRDT(2) = BRDT(2) (Homo sapiens, UniProt Q58F21); assay: biochemical; conditions: read-out: % Ctrl (1 uM)
BRD9 [2] = molecular target: BRD9 (Homo sapiens, UniProt Q9H8M2); assay: biochemical; conditions: read-out: % Ctrl (1 uM)
BRD2(2) = BRD2(2) (Homo sapiens, UniProt P25440); assay: biochemical; conditions: read-out: % Ctrl (1 uM)
TRIM24(PHD,Bromo.) = TRIM24(PHD,Bromo.) (Homo sapiens, UniProt O15164); assay: biochemical; conditions: read-out: % Ctrl (1 uM)
SMARCA4 = SMARCA4 (Homo sapiens, UniProt P51532); assay: biochemical; conditions: read-out: % Ctrl (1 uM)
BAZ2B = BAZ2B (Homo sapiens, UniProt Q9UIF8); assay: biochemical; conditions: read-out: % Ctrl (1 uM)
FALZ = FALZ (Homo sapiens, UniProt Q12830); assay: biochemical; conditions: read-out: % Ctrl (1 uM)
PBRM1(2) = PBRM1(2) (Homo sapiens, UniProt Q86U86); assay: biochemical; conditions: read-out: % Ctrl (1 uM)
BRD7 = BRD7 (Homo sapiens, UniProt Q9NPI1); assay: biochemical; conditions: read-out: % Ctrl (1 uM)
BRD4(1) = BRD4(1) (Homo sapiens, UniProt O60885); assay: biochemical; conditions: read-out: % Ctrl (1 uM)
BRD4(2) = BRD4(2) (Homo sapiens, UniProt O60885); assay: biochemical; conditions: read-out: % Ctrl (1 uM)
BAZ2A = BAZ2A (Homo sapiens, UniProt Q9UIF9); assay: biochemical; conditions: read-out: % Ctrl (1 uM)
BRDT(1) = BRDT(1) (Homo sapiens, UniProt Q58F21); assay: biochemical; conditions: read-out: % Ctrl (1 uM)
GCN5L2 = GCN5L2 (Homo sapiens, UniProt Q92830); assay: biochemical; conditions: read-out: % Ctrl (1 uM)
BRD3(1) = BRD3(1) (Homo sapiens, UniProt Q15059); assay: biochemical; conditions: read-out: % Ctrl (1 uM)
EP300 = EP300 (Homo sapiens, UniProt Q09472); assay: biochemical; conditions: read-out: % Ctrl (1 uM)
WDR9(2) = WDR9(2) (Homo sapiens, UniProt Q9NSI6); assay: biochemical; conditions: read-out: % Ctrl (1 uM)
CECR2 = CECR2 (Homo sapiens, UniProt Q9BXF3); assay: biochemical; conditions: read-out: % Ctrl (1 uM)
BRD3(2) = BRD3(2) (Homo sapiens, UniProt Q15059); assay: biochemical; conditions: read-out: % Ctrl (1 uM)
PCAF = PCAF (Homo sapiens, UniProt Q92831); assay: biochemical; conditions: read-out: % Ctrl (1 uM)
ATAD2A = ATAD2A (Homo sapiens, UniProt Q6PL18); assay: biochemical; conditions: read-out: % Ctrl (1 uM)
BRPF3 = BRPF3 (Homo sapiens, UniProt Q9ULD4); assay: biochemical; conditions: read-out: % Ctrl (1 uM)
SMARCA2 = SMARCA2 (Homo sapiens, UniProt P51531); assay: biochemical; conditions: read-out: % Ctrl (1 uM)
CREBBP = CREBBP (Homo sapiens, UniProt Q92793); assay: biochemical; conditions: read-out: % Ctrl (1 uM)
TAF1L(2) = TAF1L(2) (Homo sapiens, UniProt Q8IZX4); assay: biochemical; conditions: read-out: % Ctrl (1 uM)
Trim33(PHD,Bromo.) = Trim33(PHD,Bromo.) (Homo sapiens, UniProt Q9UPN9); assay: biochemical; conditions: read-out: % Ctrl (1 uM)
BRD2(1) = BRD2(1) (Homo sapiens, UniProt P25440); assay: biochemical; conditions: read-out: % Ctrl (1 uM)

Chain of BRD8(1) (Q9H0E9 706-811 limits assumed): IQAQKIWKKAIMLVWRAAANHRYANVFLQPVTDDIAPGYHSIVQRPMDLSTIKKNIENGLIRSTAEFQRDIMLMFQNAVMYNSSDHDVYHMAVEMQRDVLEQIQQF
Chain of BRPF3 (Q9ULD4 whole entry): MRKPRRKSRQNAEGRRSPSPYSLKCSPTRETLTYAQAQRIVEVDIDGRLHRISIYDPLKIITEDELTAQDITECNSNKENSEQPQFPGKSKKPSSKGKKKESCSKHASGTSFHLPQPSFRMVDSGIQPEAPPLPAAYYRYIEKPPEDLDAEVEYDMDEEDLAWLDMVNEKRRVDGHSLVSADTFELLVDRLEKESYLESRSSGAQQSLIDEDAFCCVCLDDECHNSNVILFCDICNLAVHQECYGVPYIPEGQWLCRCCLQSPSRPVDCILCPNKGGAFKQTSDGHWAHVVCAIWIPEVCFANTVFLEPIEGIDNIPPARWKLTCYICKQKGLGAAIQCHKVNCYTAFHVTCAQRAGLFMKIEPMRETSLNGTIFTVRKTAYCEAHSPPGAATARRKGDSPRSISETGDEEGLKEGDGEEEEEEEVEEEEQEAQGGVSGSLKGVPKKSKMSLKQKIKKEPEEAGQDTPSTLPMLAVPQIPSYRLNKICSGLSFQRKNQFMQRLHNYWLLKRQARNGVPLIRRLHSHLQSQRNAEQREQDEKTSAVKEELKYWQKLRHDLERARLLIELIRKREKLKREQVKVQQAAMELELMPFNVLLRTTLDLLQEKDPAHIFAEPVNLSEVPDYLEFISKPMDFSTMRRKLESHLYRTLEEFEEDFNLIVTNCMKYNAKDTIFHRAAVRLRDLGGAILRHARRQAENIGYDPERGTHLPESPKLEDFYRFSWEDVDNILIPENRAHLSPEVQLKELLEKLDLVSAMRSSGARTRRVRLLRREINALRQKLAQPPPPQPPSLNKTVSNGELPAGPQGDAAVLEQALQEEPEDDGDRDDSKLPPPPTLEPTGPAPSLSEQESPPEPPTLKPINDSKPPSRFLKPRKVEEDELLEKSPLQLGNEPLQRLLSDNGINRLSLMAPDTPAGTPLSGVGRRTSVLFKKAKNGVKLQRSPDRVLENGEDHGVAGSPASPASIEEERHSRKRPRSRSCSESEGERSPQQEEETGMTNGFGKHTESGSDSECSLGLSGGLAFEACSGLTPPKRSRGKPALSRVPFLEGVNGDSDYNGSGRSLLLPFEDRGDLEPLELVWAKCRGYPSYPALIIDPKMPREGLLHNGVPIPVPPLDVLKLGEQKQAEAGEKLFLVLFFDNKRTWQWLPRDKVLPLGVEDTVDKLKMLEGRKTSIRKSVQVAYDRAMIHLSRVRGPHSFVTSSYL
Chain of PCAF (Q92831 whole entry): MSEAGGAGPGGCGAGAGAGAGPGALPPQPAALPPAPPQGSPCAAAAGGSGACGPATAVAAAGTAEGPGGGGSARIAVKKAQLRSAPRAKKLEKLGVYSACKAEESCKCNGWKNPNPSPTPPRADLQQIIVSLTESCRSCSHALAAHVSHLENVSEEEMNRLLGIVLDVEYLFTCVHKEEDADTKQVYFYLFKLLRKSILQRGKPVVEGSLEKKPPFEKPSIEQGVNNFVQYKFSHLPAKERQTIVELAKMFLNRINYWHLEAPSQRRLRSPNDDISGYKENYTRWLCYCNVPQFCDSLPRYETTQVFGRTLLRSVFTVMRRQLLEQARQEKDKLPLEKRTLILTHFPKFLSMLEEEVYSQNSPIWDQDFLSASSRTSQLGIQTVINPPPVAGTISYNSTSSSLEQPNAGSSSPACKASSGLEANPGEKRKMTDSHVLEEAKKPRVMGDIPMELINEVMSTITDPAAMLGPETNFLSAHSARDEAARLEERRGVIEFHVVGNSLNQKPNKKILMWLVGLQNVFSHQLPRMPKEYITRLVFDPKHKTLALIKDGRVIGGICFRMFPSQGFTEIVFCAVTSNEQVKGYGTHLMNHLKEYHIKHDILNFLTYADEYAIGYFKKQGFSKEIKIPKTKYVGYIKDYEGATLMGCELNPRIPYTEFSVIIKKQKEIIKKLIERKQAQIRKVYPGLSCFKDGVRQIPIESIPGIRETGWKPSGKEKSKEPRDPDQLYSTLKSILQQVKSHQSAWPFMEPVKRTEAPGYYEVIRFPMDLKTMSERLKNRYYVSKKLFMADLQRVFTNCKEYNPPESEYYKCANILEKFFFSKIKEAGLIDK
Chain of TAF1L(2) (Q8IZX4 whole entry): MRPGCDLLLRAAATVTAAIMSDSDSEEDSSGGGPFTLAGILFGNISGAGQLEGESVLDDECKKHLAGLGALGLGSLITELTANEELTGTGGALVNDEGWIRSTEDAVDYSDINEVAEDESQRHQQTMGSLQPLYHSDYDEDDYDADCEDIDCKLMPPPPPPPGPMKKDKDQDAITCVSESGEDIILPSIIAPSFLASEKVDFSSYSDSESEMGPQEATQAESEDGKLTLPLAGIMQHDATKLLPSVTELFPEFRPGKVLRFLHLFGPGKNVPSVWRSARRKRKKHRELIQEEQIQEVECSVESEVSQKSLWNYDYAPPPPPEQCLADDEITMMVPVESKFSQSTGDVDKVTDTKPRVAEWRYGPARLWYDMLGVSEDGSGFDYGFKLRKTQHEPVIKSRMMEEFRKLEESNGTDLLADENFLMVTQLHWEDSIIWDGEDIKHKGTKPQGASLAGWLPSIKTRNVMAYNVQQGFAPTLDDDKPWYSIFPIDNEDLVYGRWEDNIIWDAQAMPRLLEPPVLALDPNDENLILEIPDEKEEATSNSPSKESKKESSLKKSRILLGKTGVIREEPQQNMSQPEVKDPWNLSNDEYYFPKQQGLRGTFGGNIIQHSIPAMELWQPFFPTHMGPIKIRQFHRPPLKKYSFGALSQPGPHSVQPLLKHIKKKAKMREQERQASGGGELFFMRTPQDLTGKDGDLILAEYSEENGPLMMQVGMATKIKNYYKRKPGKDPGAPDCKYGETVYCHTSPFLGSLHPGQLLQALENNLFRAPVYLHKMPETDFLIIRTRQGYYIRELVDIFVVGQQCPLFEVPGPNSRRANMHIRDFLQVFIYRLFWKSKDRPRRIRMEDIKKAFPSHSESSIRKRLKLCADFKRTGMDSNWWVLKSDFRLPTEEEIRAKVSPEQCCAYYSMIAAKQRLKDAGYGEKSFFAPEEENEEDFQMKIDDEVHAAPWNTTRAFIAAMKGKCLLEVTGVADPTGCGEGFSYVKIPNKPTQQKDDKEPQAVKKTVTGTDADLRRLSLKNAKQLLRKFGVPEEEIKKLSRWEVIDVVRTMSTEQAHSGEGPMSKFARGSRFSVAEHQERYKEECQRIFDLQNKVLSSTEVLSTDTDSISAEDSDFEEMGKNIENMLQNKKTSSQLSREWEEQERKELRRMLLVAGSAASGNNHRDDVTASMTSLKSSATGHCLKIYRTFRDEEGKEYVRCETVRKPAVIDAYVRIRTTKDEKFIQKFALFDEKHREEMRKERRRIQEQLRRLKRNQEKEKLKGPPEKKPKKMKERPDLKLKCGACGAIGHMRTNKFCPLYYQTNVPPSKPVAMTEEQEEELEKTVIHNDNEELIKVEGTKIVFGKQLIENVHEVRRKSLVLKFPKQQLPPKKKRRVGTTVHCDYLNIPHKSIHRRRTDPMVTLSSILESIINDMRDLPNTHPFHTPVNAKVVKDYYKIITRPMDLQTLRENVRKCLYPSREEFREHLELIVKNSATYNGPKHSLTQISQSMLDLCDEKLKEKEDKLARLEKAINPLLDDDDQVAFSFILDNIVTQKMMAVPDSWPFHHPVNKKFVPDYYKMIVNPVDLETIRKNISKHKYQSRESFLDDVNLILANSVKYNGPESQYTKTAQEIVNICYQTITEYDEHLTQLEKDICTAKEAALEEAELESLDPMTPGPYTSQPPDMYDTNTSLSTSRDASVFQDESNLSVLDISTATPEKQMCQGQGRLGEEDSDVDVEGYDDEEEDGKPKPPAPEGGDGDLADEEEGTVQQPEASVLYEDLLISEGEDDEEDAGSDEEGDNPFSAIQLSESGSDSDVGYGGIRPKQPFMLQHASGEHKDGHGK
Chain of BRD2(2) (P25440 whole entry): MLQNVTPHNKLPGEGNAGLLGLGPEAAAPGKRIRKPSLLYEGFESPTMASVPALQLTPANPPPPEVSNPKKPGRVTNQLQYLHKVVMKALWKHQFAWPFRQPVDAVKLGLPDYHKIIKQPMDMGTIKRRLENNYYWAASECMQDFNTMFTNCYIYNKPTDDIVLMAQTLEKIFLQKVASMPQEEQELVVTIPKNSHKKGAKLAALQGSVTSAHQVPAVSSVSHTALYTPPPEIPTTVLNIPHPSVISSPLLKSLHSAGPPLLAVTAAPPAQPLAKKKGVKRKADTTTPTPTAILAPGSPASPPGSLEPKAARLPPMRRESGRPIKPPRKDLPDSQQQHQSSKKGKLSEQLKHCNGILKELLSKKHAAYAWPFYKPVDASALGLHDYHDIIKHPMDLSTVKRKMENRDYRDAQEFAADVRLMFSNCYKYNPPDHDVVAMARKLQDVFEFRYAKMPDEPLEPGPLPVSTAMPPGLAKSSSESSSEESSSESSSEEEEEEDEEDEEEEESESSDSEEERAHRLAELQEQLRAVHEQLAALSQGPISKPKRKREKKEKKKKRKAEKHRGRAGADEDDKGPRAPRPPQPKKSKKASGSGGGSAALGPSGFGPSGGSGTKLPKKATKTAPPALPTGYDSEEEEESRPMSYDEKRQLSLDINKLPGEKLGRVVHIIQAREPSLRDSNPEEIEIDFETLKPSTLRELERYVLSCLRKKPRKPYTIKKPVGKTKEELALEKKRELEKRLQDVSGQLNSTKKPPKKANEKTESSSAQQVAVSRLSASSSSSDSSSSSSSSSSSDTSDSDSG

SMILES: COc1cc(-c2cn(C)c(=O)c3cnccc23)cc(OC)c1CN(C)C [BI-7273]
- IC50 (BRD8(1); tracer: compound 1-biotin): less potently by I-BRD9 and BI-7273

SMILES: COc1cc(-c2cn(C)c(=O)c3cnccc23)c(OC)cc1CN(C)C [BI-9564]
- IC50 (BRD8(1); tracer: compound 1-biotin): 970 nM

The remaining lines, values ahead:

- IC50 (BRD9 [1]): > 10000 nM
SMILES: COc1ccc2ccccc2c1-c1cn(C)c(=O)c2cnccc12 [compound 2]

- remaining activity at 1 µM (ATAD2B): 79%
- remaining activity at 1 µM (TAF1(2)): 79%
- remaining activity at 1 µM (PBRM1(5)): 87%
- remaining activity at 1 µM (BRPF1): 65%
- remaining activity at 1 µM (BRD1): 89%
- remaining activity at 1 µM (BRDT(2)): 88%
- remaining activity at 1 µM (BRD9 [2]): 80%
- remaining activity at 1 µM (BRD2(2)): 89%
- remaining activity at 1 µM (TRIM24(PHD,Bromo.)): 90%
- remaining activity at 1 µM (SMARCA4): 71%
- remaining activity at 1 µM (BAZ2B): 84%
- remaining activity at 1 µM (FALZ): 82%
- remaining activity at 1 µM (PBRM1(2)): 85%
- remaining activity at 1 µM (BRD7): 91%
- remaining activity at 1 µM (BRD4(1)): 88%
- remaining activity at 1 µM (BRD4(2)): 94%
- remaining activity at 1 µM (BAZ2A): 69%
- remaining activity at 1 µM (BRDT(1)): 88%
- remaining activity at 1 µM (GCN5L2): 86%
- remaining activity at 1 µM (BRD3(1)): 76%
- remaining activity at 1 µM (EP300): 8.4%
- remaining activity at 1 µM (WDR9(2)): 88%
- remaining activity at 1 µM (CECR2): 74%
- remaining activity at 1 µM (BRD3(2)): 75%
- remaining activity at 1 µM (PCAF): 69%
- remaining activity at 1 µM (ATAD2A): 100%
- remaining activity at 1 µM (BRPF3): 94%
- remaining activity at 1 µM (SMARCA2): 74%
- remaining activity at 1 µM (CREBBP): 9.2%
- remaining activity at 1 µM (TAF1L(2)): 91%
- remaining activity at 1 µM (Trim33(PHD,Bromo.)): 92%
- remaining activity at 1 µM (BRD2(1)): 72%
SMILES: COc1cc(CN2CC(N)C2)cc(OC)c1-c1cn(C)c(=O)c2cc(F)ccc12 [DN02]

- IC50 (BRD8(1)): 85 nM
- IC50 (BRD9 [1]): > 10000 nM
SMILES: COc1cc(CN(C)C)cc(OC)c1-c1cn(C)c(=O)c2cnccc12 [compound 3]
